Earlier results, collected in US20170368087A1, “PHARMACEUTICAL COMPOSITION COMPRISING TOPIRAMATE” (INNOVACO PHARMACEUTICALS, INC., priority 2014, published 2017).

- solubility in acetone, dimethyl sulfoxide, ethanol, and alkaline solutions containing sodium hydroxide or sodium phosphate: freely soluble
- solubility in water (room temperature): approximately 9.8 mg/mL
SMILES: CC1(C)O[C@@H]2[C@@H](CO[C@@]3(COS(N)(=O)=O)OC(C)(C)O[C@@H]23)O1 [Topiramate, 2,3:4,5-Di-O-isopropylidene-β-D-fructo-pyranose sulfamate]
